From patent publication US20260347399A1, “BRAIN PENETRATING PEPTIDES AND METHODS OF USE” (priority 2022, published 2026)
“Also recorded” adds a separate entry of the source. Ends that are not written are not given here.

What was measured:
rat CNS = experiment: CVGTNCY peptide-phage biodistribution, rats; assay type: in vivo; details: peptide-phage i.v., 1 h
Experimental: CVGTNCY (SEQ ID NO:2) peptide-phage or control phage were injected iv into mice, after one hour circulation animals were perfused with 20 ml PBS, organs were collected, weighed, and dropped to 1% NP40-LB solution. Organs were homogenized and titer of each tissue was determined. FAM-labeled peptides (2 mM of peptide in PBS) were injected intravenously and 3 hours later the animals were perfused with 20 mL of PBS. The organs were excised, snap-frozen in the vapor of liquid nitrogen, and stored at −80 °C. For confocal microscopy, the tissues were sectioned at 15 μm and stained with antibodies and DAPI.
To describe the utility of CVGTNCY (SEQ ID NO:2) peptide as a systemic CNS homing peptide, the biodistribution of CVGTNCY (SEQ ID NO:2) peptide-phage as well as peptide-functionalized AgNPs were analyzed in rodents. […] No significant difference between CVGTNCY (SEQ ID NO:2) and G7 titers was determined in the rest of the analyzed organs/tissues).

WT-GBM = experiment: Peptide-phage homing in glioma-bearing mice; assay type: in vivo, mouse; details: peptide-phage i.v., 1 h
Description: (§1) Animal experimentation procedures were approved by the Estonian Ministry of Agriculture, Committee of Animal Experimentation, Project #48 and #159. Balb/c mice and Athymic nude mice (HD) were housed in a pathogen-free environment at the Animal Facility of the Institute of Biomedicine and Translational Medicine, University of Tartu (Tartu, Estonia). For induction of orthotopic GBM xenografts in nude mice, 7×10^5 (WT-GBM, VEGFko GBM) cells were implanted intracranially in the right striatum of the brain (ccordinates: 2 mm laterally and 2 mm posteriorly from bregma and at 2.5 mm depth). Intracranial tumors developed for 6-7 days (WT-GBM) and 12-14 days (VEGFko GBM) before performing experiments.
(§2) Homing of CVGTNCY (SEQ ID NO:2) was analyzed in angiogenic WT-GBM and infiltrative VEGFko GBM models. First, CVGTNCY (SEQ ID NO:2) peptide-phage homing was evaluated based on titer after systemic injection into the glioma-bearing mice and perfusion with PBS.

VEGFko GBM = experiment: Peptide-phage homing in glioma-bearing mice; assay type: in vivo, mouse; details: peptide-phage i.v., 1 h
Description: as §1, §2

brain tissue homogenate = experiment: Peptide-phage binding to brain tissue homogenate ex vivo; parameters: species or system mouse
rat brain = experiment: Peptide-phage biodistribution after i.v. injection, rats; assay type: in vivo; details: 1 h
Experimental: (§3) For titering-based biodistribution studies, nucleotide sequences coding for peptides of interest were cloned into T7 phage genomic DNA to be expressed on the phage surface as C-terminal fusions to capsid protein. The cloning was performed using complementary oligonucleotides, the phage clones were amplified, and purified as described in (Põšnograjeva, et al., 2022). 5×10^9 pfu of peptide-phage clone was injected i.v. into male Balb/C mice or 5×10^10 pfu of phage was injected into female Sprague-Dawley rats (n=3). 60 min later, the animals were anesthetized and perfused with PBS. The tissues were collected, homogenized, and the amount of phage in tissue lysates was determined by titering using E. coli strain BLT5615.
(§4) The brain selectivity of SRRVISRAKLAAAL (SEQ ID NO:9) phage following a systemic administration was studied in mice and rats by determining the titer of […] (SEQ ID NO:9) and control phage in multiple control tissues.

mouse brain = experiment: Peptide-phage biodistribution after i.v. injection; assay type: in vivo
Experimental: as §3
A complete listing of peptides that were identified from Ion Torrent high throughput sequencing from bio-panning Round 5 is set forth in Table 1B.
The peptide-phage was injected i.v. and following 1 h circulation, the mice were perfused, brain and control organs were collected and phage titer in each tissue was determined. Insertless T7 phage was used as a negative control and a phage displaying BBB penetrating peptide Angiopep-2 (TFFYGGSRGKRNNFKTEEY; SEQ ID NO:97) was used for comparison. Cerepep phage achieved approximately 300-fold higher accumulation in mouse brain compared to control and Angiopep-2 phages (FIG. 2A; Peptide-phage accumulation in the brain. 5×10^9 pfu of phage was injected i.v. and following 1 h circulation mice were perfused with PBS. The amount of phage accumulated in the brain was determined by titering). To assess the brain distribution of […] (SEQ ID NO:9), the mouse brain was dissected to separate the olfactory bulbs, cerebellum, brain stem and the hemispheres before determining the titer in the tissue.
as §4

Neuro2A cells = experiment: In vitro AgNP binding and internalization; assay type: cell-based, mouse; details: pre-incubated with 100 μM free peptide, 1 h, 37 °C
Experimental: To assess the binding and uptake of silver nanoparticles functionalized with Cerepep, Neuro2A were cultured in 24-well plates on polylysine coated glass coverslips until 80-90% confluency. Biotinylated Cerepep peptide or biotin as a non-targeted control and CF555 dye were conjugated to neutravidin-AgNPs prepared as described previously (Tobi et al., 2021). Some samples were pre-incubated with 100 μM Cerepep peptide (Ac-SERVISRAKLAAAL-OH (SEQ ID NO:9), where Ac-acetylation) at 37 °C for 1 h to assess whether the binding and internalization of particles is peptide-dependent. 10 μl (OD=100) of CP-AgNPs or control biotin-AgNPs were added to cells in 500 μl of media and incubated at 37 °C for 1h. In some samples, the cell surface-bound AgNPs were removed with a freshly prepared etching solution containing 10 mM of Na2S2O3 and K3Fe(CN)6 in PBS, which was applied for 3 min. All the samples were washed with DPBS to remove unbound AgNPs. The cells were fixed in methanol, stained with DAPI and analyzed with confocal microscopy as described above.
Next, the interaction of cultured Neuro2A cells with neutravidin-AgNPs labeled with NHS-CF555 dye and functionalized with biotinylated SRRVISRAKLAAAL (SEQ ID NO: 9) (CP-AgNPs) was tested.

Substance	homing to CNS vs other organs (rat CNS)	ratio of CVGTNCY over G7, normal brain vs GBM (WT-GBM; WT-GBM and VEGFko GBM)	accumulation in WT-GBM compared to normal brain parenchyma (WT-GBM) [times]	accumulation in VEGFko GBM compared to normal brain parenchyma (VEGFko GBM) [times]	binding to brain tissue homogenate ex vivo in the presence of whole blood (brain tissue homogenate; with blood sample, p<0.05)	binding to brain tissue homogenate ex vivo (brain tissue homogenate; without blood)	brain selectivity (titer in brain vs control tissues) (rat brain)	homing preference (mouse brain; mouse, in vivo)	accumulation in mouse brain, fold over Angiopep-2 phage (mouse brain; peptide-phage 5×10^9 pfu i.v., 1 h, vs Angiopep-2 phage)	accumulation in mouse brain, fold over control phage (mouse brain; peptide-phage 5×10^9 pfu i.v., 1 h, vs insertless control phage)	accumulation in the brain, shorter versions of Pep1 (mouse brain; peptide-phage 5×10^9 pfu i.v., 1 h circulation)	brain selectivity (titer in brain vs control tissues) (mouse brain; peptide-phage i.v., 1 h, mice)	accumulation in brain regions and spinal cord (mouse brain; peptide-phage i.v., 1 h, olfactory bulbs, cerebellum, brain stem, hemispheres, spinal cord, compared to control phage)	effect of free peptide on binding and internalization of CP-AgNPs (Neuro2A cells)
CVGTNCY	homes preferentially to the CNS than to other organs	higher in the normal brain parenchyma than in GBMs	6	2	significantly increase binding	no binding was detected; also recorded: significantly disrupted								
SRRVISRAKLAAAL [Cerepep, SRRVISRAKLAAAL]							highest accumulation in the brain and low accumulation in all other tested tissues	homes preferentially to the eyes/brain/CNS	approximately 300 fold	approximately 300 fold	shortest peptide still achieving a high accumulation in the brain	highest accumulation in the brain and low accumulation in all other tested tissues	high accumulation in all tested brain regions as well as in the spinal cord	abolished
